ChEMBL document CHEMBL1158466, “Discovery of novel 2-aminobenzamide inhibitors of heat shock protein 90 as potent, selective and orally active antitumor agents” (J Med Chem, 2009)

How the values were obtained:
[1] = Apparent oral clearance in Swiss Webster mouse at 25 mg/kg, po; assay type: ADME, organism-based; parameters: dose 25 mg/kg, route oral; conditions: in vivo
Heat shock protein HSP90 [2] = biological target: T1, Heat shock protein HSP90 (Homo sapiens, UniProt P07900+P08238); conditions: a-375
Description: Inhibition of Hsp90 in human A375 cells assessed as pS6 degradation after 24 hrs by high content screening

[3] = AUC (infinity) in Swiss Webster mouse at 10 mg/kg, iv; assay type: ADME, organism-based; parameters: time infinity, dose 10 mg/kg, route intravenous; conditions: plasma
SK-MEL-5 = assay: Antiproliferative activity against human SK-MEL-5 cells after 72 to 144 hrs by cyquant DNA dye method; assay type: functional, cell-based
[4] = Tmax in Swiss Webster mouse at 10 mg/kg, po; assay type: ADME, organism-based; parameters: dose 10 mg/kg, route oral; conditions: in vivo
[5] = Tmax in Swiss Webster mouse at 25 mg/kg, po; assay type: ADME, organism-based; parameters: dose 25 mg/kg, route oral; conditions: in vivo
SW-620 = assay: Antiproliferative activity against human SW620 cells after 72 to 144 hrs by cyquant DNA dye method; assay type: functional, cell-based
[6] = AUC (infinity) in Swiss Webster mouse at 50 mg/kg, po; assay type: ADME, organism-based; parameters: time infinity, dose 50 mg/kg, route oral; conditions: plasma
Heat shock protein HSP90 [7] = biological target: T1, Heat shock protein HSP90; assay type: cell-based; conditions: au565
HT-29 [8] = assay: Antiproliferative activity against human HT-29 cells after 72 to 144 hrs by cyquant DNA dye method; assay type: functional, cell-based
[9] = Apparent volume of distribution with respect to bioavailability in Swiss Webster mouse at 25 mg/kg, po; assay type: ADME, organism-based; conditions: in vivo, read-out: Vc/F
[10] = Apparent oral clearance in Swiss Webster mouse at 50 mg/kg, po; assay type: ADME, organism-based; parameters: dose 50 mg/kg, route oral; conditions: in vivo
LNCaP = assay: Antiproliferative activity against human LNCAP cells after 72 to 144 hrs by cyquant DNA dye method; assay type: functional, cell-based
K562 = assay: Antiproliferative activity against human K562 cells after 72 to 144 hrs by cyquant DNA dye method; assay type: functional, cell-based
[11] = Half life in Swiss Webster mouse at 10 mg/kg, iv; assay type: ADME, organism-based; parameters: dose 10 mg/kg, route intravenous; conditions: in vivo
NCI-H460 = assay: Antiproliferative activity against human NCI-H460 cells after 72 to 144 hrs by cyquant DNA dye method; assay type: functional, cell-based
Heat shock protein HSP90 [12] = biological target: T1, Heat shock protein HSP90; conditions: a-375; remark: listed apart in the source
Description: Inhibition of Hsp90 in human A375 cells assessed as Hsp70 induction after 24 hrs by high content screening

[13] = Tmax in Swiss Webster mouse at 10 mg/kg, iv; assay type: ADME, organism-based; parameters: dose 10 mg/kg, route intravenous; conditions: in vivo
[14] = Half life in Swiss Webster mouse at 50 mg/kg, po; assay type: ADME, organism-based; parameters: dose 50 mg/kg, route oral; conditions: in vivo
HCT-15 = assay: Antiproliferative activity against human HCT15 cells after 72 to 144 hrs by cyquant DNA dye method; assay type: functional, cell-based
A-375 = assay: Antiproliferative activity against human A375 cells after 72 to 144 hrs by cyquant DNA dye method; assay type: functional, cell-based
[15] = Cmax in Swiss Webster mouse at 25 mg/kg, po; assay type: ADME, organism-based; parameters: dose 25 mg/kg, route oral; conditions: in vivo
[16] = Half life in Swiss Webster mouse at 10 mg/kg, po; assay type: ADME, organism-based; parameters: dose 10 mg/kg, route oral; conditions: in vivo
[17] = AUC (infinity) in Swiss Webster mouse at 25 mg/kg, po; assay type: ADME, organism-based; parameters: time infinity, dose 25 mg/kg, route oral; conditions: plasma
Mus musculus [18] = assay: Toxicity in nu/nu mouse assessed as effect on body weight at 5 to 50 mg/kg, po; assay type: organism-based; parameters: dose 5-50 mg/kg, route oral; conditions: in vivo
[19] = Apparent volume of distribution with respect to bioavailability in Swiss Webster mouse at 10 mg/kg, po; assay type: ADME, organism-based; conditions: in vivo, read-out: Vc/F
MCF7 = assay: Antiproliferative activity against human MCF7 cells after 72 to 144 hrs by cyquant DNA dye method; assay type: functional, cell-based
[20] = Clearance in Swiss Webster mouse at 10 mg/kg, iv; conditions: in vivo
[21] = Cmax in Swiss Webster mouse at 10 mg/kg, po; assay type: ADME, organism-based; parameters: dose 10 mg/kg, route oral; conditions: in vivo
[22] = Apparent oral clearance in Swiss Webster mouse at 10 mg/kg, po; assay type: ADME, organism-based; parameters: dose 10 mg/kg, route oral; conditions: in vivo
Mus musculus [23] = assay: Toxicity in nu/nu mouse assessed as mortality at 5 to 50 mg/kg, po; assay type: organism-based; parameters: dose 5-50 mg/kg, route oral; conditions: in vivo
Mus musculus [24] = assay: Apparent volume of distribution with respect to bioavailability in Swiss Webster mouse at 10 mg/kg, iv; assay type: ADME, organism-based; conditions: in vivo
MDA-MB-231 = assay: Antiproliferative activity against human MDA-MB-231 cells after 72 to 144 hrs by cyquant DNA dye method; assay type: functional, cell-based
[25] = Cmax in Swiss Webster mouse at 50 mg/kg, po; assay type: ADME, organism-based; parameters: dose 50 mg/kg, route oral; conditions: in vivo
[26] = AUC (infinity) in Swiss Webster mouse at 10 mg/kg, po; assay type: ADME, organism-based; parameters: time infinity, dose 10 mg/kg, route oral; conditions: plasma
Heat shock protein HSP90 [27] = biological target: T1, Heat shock protein HSP90; conditions: au565
Description: Inhibition of Hsp90 in human AU565 cells assessed as pERK degradation after 24 hrs by high content screening

HT-29 [28] = assay: Antitumor activity against human HT-29 cells xenografted nu/nu mouse assessed as tumor growth delay at 25 mg/kg, po administered 3 times a week for 3 weeks; assay type: functional
[29] = Tmax in Swiss Webster mouse at 50 mg/kg, po; assay type: ADME, organism-based; parameters: dose 50 mg/kg, route oral; conditions: in vivo
[30] = Half life in Swiss Webster mouse at 25 mg/kg, po; assay type: ADME, organism-based; parameters: dose 25 mg/kg, route oral; conditions: in vivo
HT-29 [31] = assay: Antitumor activity against human HT-29 cells xenografted nu/nu mouse assessed as tumor growth delay at 50 mg/kg, po administered 3 times a week for 3 weeks; assay type: functional
HT-29 [32] = assay: Antitumor activity against human HT-29 cells xenografted nu/nu mouse assessed as median time for tumor to reach end point at 50 mg/kg, po administered 3 times a week for 3 weeks; assay type: functional
[33] = Cmax in Swiss Webster mouse at 10 mg/kg, iv; assay type: ADME, organism-based; parameters: dose 10 mg/kg, route intravenous; conditions: in vivo
[34] = Solubility at pH 4 to […]; assay type: physicochemical; conditions: buffer
[35] = Apparent volume of distribution with respect to bioavailability in Swiss Webster mouse at 50 mg/kg, po; assay type: ADME, organism-based; conditions: in vivo, read-out: Vc/F
[36] = Binding affinity to pig spleen Hsp90 ATPase pocket by Bradford assay; assay type: tissue-based, Sus scrofa
PC-3 = assay: Antiproliferative activity against human PC3 cells after 72 to 144 hrs by cyquant DNA dye method; assay type: functional, cell-based

Work on `CC1(C)CC(=O)c2c(C(F)(F)F)nn(-c3ccc(C(N)=O)c(N[C@H]4CC[C@H](OC(=O)CN)CC4)c3)c2C1.CS(=O)(=O)O` yielded a CL/F [1] of 37.9 mL/min/kg, an IC50 (Heat shock protein HSP90 [2]) of 61 nM and an AUC(0-inf) [3] of 4870 ng·h/mL. The IC50 (SK-MEL-5) was 25 nM, the Tmax [4] was 1 h and the Tmax [5] was 1 h. It also gave an IC50 (SW-620) of 19 nM, an AUC(0-inf) [6] of 25200 ng·h/mL and an IC50 (Heat shock protein HSP90 [7]) of 5 nM. It also gave an IC50 (HT-29 [8]) of 32 nM, a Vd/F [9] of 9.59 L/kg and a CL/F [10] of 33.1 mL/min/kg. It also gave an IC50 (LNCaP) of 31 nM, an IC50 (K562) of 23 nM and a half-life [11] of 2.6 h. It also gave an IC50 (NCI-H460) of 215 nM, an IC50 (Heat shock protein HSP90 [12]) of 13 nM and a Tmax [13] of 4.98 min. For the same molecule, the half-life [14] was 3.3 h, the IC50 (HCT-15) was 190 nM and the IC50 (A-375) was 51 nM. The Cmax [15] was 2150 ng/mL, the half-life [16] was 2.5 h and the AUC(0-inf) [17] was 11000 ng·h/mL. For the same molecule, the Activity (Mus musculus [18]) was “Non-toxic”, the Vd/F [19] was 8.93 L/kg and the IC50 (MCF7) was 16 nM. It also gave a clearance [20] of 34.2 mL/min/kg, a Cmax [21] of 747 ng/mL and a CL/F [22] of 42 mL/min/kg. The Activity (Mus musculus [23]) was “Non-toxic”, the Vc/F (Mus musculus [24]) was 7.846 L/kg and the IC50 (MDA-MB-231) was 38 nM. It also gave a Cmax [25] of 4020 ng/mL, an AUC(0-inf) [26] of 3970 ng·h/mL and an IC50 (Heat shock protein HSP90 [27]) of 11 nM. For the same molecule, the Activity (HT-29 [28]) was 14%, the Tmax [29] was 2 h and the half-life [30] was 2.9 h. For the same molecule, the Activity (HT-29 [31]) was 67%, the Activity (HT-29 [32]) was 43.2 days and the Cmax [33] was 4460 ng/mL. For the same molecule, the solubility [34] was 1000 µg/mL, the Vd/F [35] was 9.55 L/kg and the Kd [36] was 41 nM. For the same molecule, the IC50 (PC-3) was 114 nM.
